According to US20220054477A1, “INDUCTION OF SUSTAINED LOCAL INFLAMMATION” (Ascendis Pharma Oncology Division A/S, priority 2019, published 2022):
Marks after values point to notes of the source that are not given here.

Key:
[1] = set-up: species or system WISTAR rats; details: rat, in vivo, sc, 25 ug
Description: Hydrogels were suspended (ca. 6% wt/v) PBST buffer at pH 7.4. […] Blood samples were withdrawn and used for plasma generation over the course of 28 d. […] Plasma concentration profiles were generated and analyzed with Phoenix WinNonlin software (Certara, Princeton, N.J., USA).

CT26 tumor cells = experiment: In vivo anti-tumor efficacy, CT26 tumor volumes (Example 11); set-up: species or system BALB/C mice; details: single intratumoral dose
Description: Mice were subcutaneously implanted with 3×10^5 CT26 tumor cells in the left and right flanks. […] Hydrogels were administered as suspensions in PBST buffer. Following treatment initiation, anti-tumor efficacy was assessed by determination of tumor volumes at various time points from tumor size measurements with a caliper. Tumor volumes were calculated according to the formula: […]
where L is the length of the tumor and W the width (both in mm). Mice were removed from the study once tumors were greater than 1500 mm^3.

IFNγ = experiment: In vivo cytokine induction, plasma cytokine levels: IFNγ (Example 12); set-up: species or system BALB/C mice; details: single intratumoral dose, values at or below LLOQ set to 0.01
Description: (§1) Mice were subcutaneously implanted with 3×10^5 CT26 tumor cells in the left and right flanks. […] Hydrogels were administered as suspensions in PBST buffer. K2 EDTA-preserved blood samples were collected by retro-orbital bleed at various time points following drug administration and plasma was isolated following centrifugation at 2000×g for 5 minutes at 4° C. and frozen. Plasma samples were stored at −80° C. Plasma was thawed and undiluted samples were assessed for cytokine levels using the 36-Plex Mouse ProcartaPlex™ Cytokine Panel 1A (ThermoFisher Scientific) following manufacturer's recommendations. Cytokines were measured on the Bio-Plex 200 (BioRad) following kit instructions. For sample values below or at the lower limit of quantitation (LLOQ) of the assay, a value of 0.01 pg/mL was instead used in determining mean cytokine concentrations.

IL-6 = experiment: In vivo cytokine induction, plasma cytokine levels: IL-6 (Example 12); set-up: species or system BALB/C mice; details: single intratumoral dose
Description: as §1

CCL2/MCP-1 = experiment: In vivo cytokine induction, plasma cytokine levels: CCL2/MCP-1 (Example 12); set-up: species or system BALB/C mice; details: single intratumoral dose
Description: as §1

TNFα = experiment: In vivo cytokine induction, plasma cytokine levels: TNFα (Example 12); set-up: species or system BALB/C mice; details: single intratumoral dose
Description: as §1

[2] = test system: Ly-6C+ antigen presenting cells; experiment: Flow cytometry of tumor draining lymph nodes: frequency of Ly-6C+ antigen presenting cells of non-T cells (Example 15); assay type: in vivo, BALB/C mice; details: 7 days after randomization
Description: (§2) Hydrogels were administered as suspension in PTP buffer. Some cohorts were further treated with 20 μg human IL-2 (Peprotech, Rocky Hill, N.J.), intraperitoneally (I.P.), twice a day for 5 days. Mice were sacrificed 7 days after randomization (D0). Following sacrifice, tumor draining lymph nodes were isolated from both flanks and were dissociated mechanically to generate a single cell suspension at a cell concentration of 1×10^6 cells per sample. Cell suspensions were centrifuged at 300 g for 5 minutes. Supernatants were discarded and cells were resuspended in FACS buffer with 1 μg/ml Fc-Block and incubated at 4° C. for 10 minutes in the dark. Surface marker antibody mixtures (antibody concentration: 10 μg/mL) in FACS buffer were added to each sample and samples were incubated in the dark at 4° C. for 30 minutes. Cells were centrifuged at 300 g for 5 minutes and supernatants were discarded. Cells were washed and then resuspended with FACS buffer before cytometer collection.
(§3) After collection, FACS data was analyzed using FlowJo Version 10.6.1. Compensation was digitally adjusted using single antibody-stained beads. Samples with less than 90% viability, as determined by LiveDead cell staining, were excluded from the analysis. […]

[3] = test system: Ly-6C+ MHCII+ antigen presenting cells; experiment: Flow cytometry of tumor draining lymph nodes: frequency of IA-IE (MHCII)+ antigen presenting cells of Ly-6C+ antigen presenting cells (Example 15); assay type: in vivo, BALB/C mice; details: 7 days after randomization
Description: as §2, §3

CD8+ T cells = experiment: Flow cytometry of tumor draining lymph nodes: frequency of CD8+ T cells of CD3+ T cells (Example 15); assay type: in vivo, BALB/C mice; details: 7 days after randomization
Description: as §2, §3

Ly-6C+ CD8+ T cells = experiment: Flow cytometry of tumor draining lymph nodes: frequency of Ly-6C+ T cells of CD8+ T cells (Example 15); assay type: in vivo, BALB/C mice; details: 7 days after randomization
Description: as §2, §3

CD4+ T cells = experiment: Flow cytometry of tumor draining lymph nodes: frequency of CD4+ T cells of CD3+ T cells (Example 15); assay type: in vivo, BALB/C mice; details: 7 days after randomization
Description: as §2, §3

Il1a = experiment: PBMC gene expression (qPCR, 6 hours post-treatment): Il1a (Example 17); assay type: in vivo, BALB/C mice
Description: (§4) Hydrogels were administered as suspensions in PTP buffer. […] Tumors were excised, weighed and snap frozen.
(§5) For PBMC isolations, approximately 600 μl of whole blood was collected via cardiac puncture. The collected whole blood from each individual mouse was diluted with a 1:1 ratio of pre-warmed PBS supplemented with 2% Fetal Bovine Serum (FBS). Then an equal volume of Histopaque-1083 was added to a new sterile 15 mL conical tube, where the diluted whole blood was layered over the Histopaque-1083. The mixture was then centrifuged at 400 g for 30 minutes. […]
(§6) Lysates from untreated control samples and 6 hour treated samples were thawed and RNA was isolated using the RNeasy Mini Kit (QIAGEN) following manufacturer's recommendations. […] RNA concentrations were measured using a NanoDrop (ThermoFisher) and then adjusted to […] with RNase-free water. RNA quality was assessed using a NanoDrop (ThermoFisher). […] 200 ng of cDNA was used for quantitative PCR using the RT^2 SYBR Green ROX qPCR Master mix (2×) kit (QIAGEN) following manufacturer's recommendations. […]
(§7) Cycle thresholds (CT) were collected using a 384-well platform ABI-7900H real-time qPCR system (Applied Biosystems). […] 2^ΔΔCT values were calculated with the following formula: […]
(§8) For each gene, 3 technical replicates were analyzed per biological replicate. Undetermined technical replicate CT values were recorded as zero ΔCT values. […]

Ccl3 = experiment: PBMC gene expression (qPCR, 6 hours post-treatment): Ccl3 (Example 17); assay type: in vivo, BALB/C mice
Description: as §4, §5, §6, §7, §8

Il1b = experiment: PBMC gene expression (qPCR, 6 hours post-treatment): Il1b (Example 17); assay type: in vivo, BALB/C mice
Description: as §4, §5, §6, §7, §8

Cxcl2 = experiment: PBMC gene expression (qPCR, 6 hours post-treatment): Cxcl2 (Example 17); assay type: in vivo, BALB/C mice
Description: as §4, §5, §6, §7, §8

Ccl2 = experiment: PBMC gene expression (qPCR, 6 hours post-treatment): Ccl2 (Example 17); assay type: in vivo, BALB/C mice
Description: as §4, §5, §6, §7, §8

Ccl4 = experiment: PBMC gene expression (qPCR, 6 hours post-treatment): Ccl4 (Example 17); assay type: in vivo, BALB/C mice
Description: as §4, §5, §6, §7, §8

Il10 = experiment: PBMC gene expression (qPCR, 6 hours post-treatment): Il10 (Example 17); assay type: in vivo, BALB/C mice
Description: as §4, §5, §6, §7, §8

Ifna4 = experiment: PBMC gene expression (qPCR, 6 hours post-treatment): Ifna4 (Example 17); assay type: in vivo, BALB/C mice
Description: as §4, §5, §6, §7, §8

Cxcl1 = experiment: PBMC gene expression (qPCR, 6 hours post-treatment): Cxcl1 (Example 17); assay type: in vivo, BALB/C mice
Description: as §4, §5, §6, §7, §8

Cxcl10 = experiment: PBMC gene expression (qPCR, 6 hours post-treatment): Cxcl10 (Example 17); assay type: in vivo, BALB/C mice
Description: as §4, §5, §6, §7, §8

Tnf = experiment: PBMC gene expression (qPCR, 6 hours post-treatment): Tnf (Example 17); assay type: in vivo, BALB/C mice
Description: as §4, §5, §6, §7, §8

## Resiquimod [Compound 4]
[1]
  AUCPred-∞: 65.4 ng·h/mL
  Cmax: 23.1 ng/mL
  t1/2 (biphasic), first value: 1.5 h
  t1/2 (biphasic), second value: 10 h
CT26 tumor cells; day 0 post-treatment
  Absolute tumor volume, Mean: 88.82 mm^3
CT26 tumor cells; day 2 post-treatment
  Absolute tumor volume, Mean: 108.44 mm^3
CT26 tumor cells; day 4 post-treatment
  Absolute tumor volume, Mean: 128.42 mm^3
CT26 tumor cells; day 7 post-treatment
  Absolute tumor volume, Mean: 316.07 mm^3
CT26 tumor cells; day 9 post-treatment
  Absolute tumor volume, Mean: 549.72 mm^3
CT26 tumor cells; day 11 post-treatment
  Absolute tumor volume, Mean: 957.90 mm^3
CT26 tumor cells; day 14 post-treatment
  Absolute tumor volume, Mean: 1220.96 mm^3
IFNγ; 1 h post-treatment
  IFNγ plasma level, Mean: 4.04 pg/mL
IFNγ; 3 h post-treatment
  IFNγ plasma level, Mean: 15.49†, ‡ pg/mL
IFNγ; 6 h post-treatment
  IFNγ plasma level, Mean: 40.72†, ‡ pg/mL
IFNγ; 10 h post-treatment
  IFNγ plasma level, Mean: 28.19†, ‡ pg/mL
IFNγ; 24 h post-treatment
  IFNγ plasma level, Mean: 2.38 pg/mL
IL-6; 1 h post-treatment
  IL-6 plasma level, Mean: 3618.87†, ‡ pg/mL
IL-6; 3 h post-treatment
  IL-6 plasma level, Mean: 1739.75†, ‡ pg/mL
IL-6; 6 h post-treatment
  IL-6 plasma level, Mean: 88.59 pg/mL
IL-6; 10 h post-treatment
  IL-6 plasma level, Mean: 154.51 pg/mL
IL-6; 24 h post-treatment
  IL-6 plasma level, Mean: 44.71 pg/mL
CCL2/MCP-1; 1 h post-treatment
  CCL2/MCP-1 plasma level, Mean: 357.83 pg/mL
CCL2/MCP-1; 3 h post-treatment
  CCL2/MCP-1 plasma level, Mean: 4230.35†, ‡ pg/mL
CCL2/MCP-1; 6 h post-treatment
  CCL2/MCP-1 plasma level, Mean: 1039.17†, ‡ pg/mL
CCL2/MCP-1; 10 h post-treatment
  CCL2/MCP-1 plasma level, Mean: 847.07† pg/mL
CCL2/MCP-1; 24 h post-treatment
  CCL2/MCP-1 plasma level, Mean: 92.58 pg/mL
TNFα; 1 h post-treatment
  TNFα plasma level, Mean: 830.84 pg/mL
TNFα; 3 h post-treatment
  TNFα plasma level, Mean: 136.25 pg/mL
TNFα; 6 h post-treatment
  TNFα plasma level, Mean: 35.49 pg/mL
TNFα; 10 h post-treatment
  TNFα plasma level, Mean: 43.32 pg/mL
TNFα; 24 h post-treatment
  TNFα plasma level, Mean: 9.74 pg/mL
[2]; injected right flank tumor
  Frequency of Ly-6C+ antigen presenting cells of non-T cells, Mean: 2.5%
[2]; uninjected left flank tumor
  Frequency of Ly-6C+ antigen presenting cells of non-T cells, Mean: 7.8%
[3]; injected right flank tumor
  Frequency of IA-IE (MHCII)+ antigen presenting cells of Ly-6C+ antigen presenting cells, Mean: 69.63%
[3]; uninjected left flank tumor
  Frequency of IA-IE (MHCII)+ antigen presenting cells of Ly-6C+ antigen presenting cells, Mean: 35.05%
CD8+ T cells; injected right flank tumor
  Frequency of CD8+ T cells of CD3+ T cells, Mean: 29.23%
CD8+ T cells; uninjected left flank tumor
  Frequency of CD8+ T cells of CD3+ T cells, Mean: 29%
Ly-6C+ CD8+ T cells; injected right flank tumor
  Frequency of Ly-6C+ T cells of CD8+ T cells, Mean: 53.7%
Ly-6C+ CD8+ T cells; uninjected left flank tumor
  Frequency of Ly-6C+ T cells of CD8+ T cells, Mean: 48%
CD4+ T cells; injected right flank tumor
  Frequency of CD4+ T cells of CD3+ T cells, Mean: 69.1%
CD4+ T cells; uninjected left flank tumor
  Frequency of CD4+ T cells of CD3+ T cells, Mean: 69.25%
Il1a
  Il1a Mean (2^ΔΔCT): 0.41
Il1a; ratio of 4 to 13i
  Il1a Fold change (4/13i): 1.78
Ccl3
  Ccl3 Mean (2^ΔΔCT): 1.43†
Ccl3; ratio of 4 to 13i
  Ccl3 Fold change (4/13i): 1.64
Il1b
  Il1b Mean (2^ΔΔCT): 3.71†
Il1b; ratio of 4 to 13i
  Il1b Fold change (4/13i): 7.92
Cxcl2
  Cxcl2 Mean (2^ΔΔCT): 35.37
Cxcl2; ratio of 4 to 13i
  Cxcl2 Fold change (4/13i): 6.43
Ccl2
  Ccl2 Mean (2^ΔΔCT): 6.75
Ccl2; ratio of 4 to 13i
  Ccl2 Fold change (4/13i): 2.82
Ccl4
  Ccl4 Mean (2^ΔΔCT): 1.31
Ccl4; ratio of 4 to 13i
  Ccl4 Fold change (4/13i): 1.74
Il10
  Il10 Mean (2^ΔΔCT): 2.77†
Il10; ratio of 4 to 13i
  Il10 Fold change (4/13i): 2.29
Ifna4
  Ifna4 Mean (2^ΔΔCT): 2.97
Ifna4; ratio of 4 to 13i
  Ifna4 Fold change (4/13i): 20.48
Cxcl1
  Cxcl1 Mean (2^ΔΔCT): 7.41
Cxcl1; ratio of 4 to 13i
  Cxcl1 Fold change (4/13i): 11.54
Cxcl10
  Cxl10 Mean (2^ΔΔCT): 45.38
Cxcl10; ratio of 4 to 13i
  Cxl10 Fold change (4/13i): 21.41
Tnf
  Tnf Mean (2^ΔΔCT): 4.64
Tnf; ratio of 4 to 13i
  Tnf Fold change (4/13i): 4.45
